Reference: US20160046592A1, “PHARMACEUTICAL COMPOSITION FOR THE TREATMENT OF DIABETES” (Ajinomoto Co., Inc., priority 2013, published 2016)

These molecules were tested against T1, PPAR-α (Homo sapiens, UniProt Q07869) (assay: Measurement of PPAR-α activity (GAL4 luciferase reporter assay in CV-1 cells)). Settings: 100(A/B): A = maximum PPAR-α activity of test compound at 3, 10, 30 and 100 μM, B = activity of the compound of WO/2011/058154 at 100 μM, 18 to 20 hours, read-out: Relative fold induction (%) of PPAR α.
T1 construct: expressed in transfected cells; host or cells: CV-1 (African green monkey kidney)
T1 sequence (Q07869 167-468): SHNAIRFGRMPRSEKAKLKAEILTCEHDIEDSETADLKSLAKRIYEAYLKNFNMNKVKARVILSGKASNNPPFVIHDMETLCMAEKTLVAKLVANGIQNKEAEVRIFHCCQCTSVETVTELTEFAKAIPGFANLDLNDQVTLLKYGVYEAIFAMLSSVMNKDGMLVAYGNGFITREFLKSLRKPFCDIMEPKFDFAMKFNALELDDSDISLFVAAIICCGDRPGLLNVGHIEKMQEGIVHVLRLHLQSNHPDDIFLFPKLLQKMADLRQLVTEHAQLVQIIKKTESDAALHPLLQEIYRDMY
Type: cell-based
Protocol: The PPAR-α activity was measured according to the published article (THE JOURNAL OF BIOLOGICAL CHEMISTRY Vol. 270, No 0.22: 12953-12956, 1995).
Plasmids used for the PPAR-α activity measurement were constructed as follows. A luciferase expression plasmid (UAS×5-TK-Luc) used was obtained by introducing a sequence in which five yeast GAL4-binding sequences are linked in tandem into a portion upstream of a thymidine kinase promoter of pTAL-Luc (Takara Bio Inc., 6252-1). A PPAR-α receptor expression plasmid (hGR-GAL4-hPPARα) used was obtained by introducing a human GR N-terminal region (1-76aa), a yeast GAL4 DNA-binding region (1-147aa), and a PPARα ligand-binding region (167-468aa) between Not I and Sal I sites of pExchange-1 Core Vector (Invitrogen, 211176).
A reporter assay was conducted by the following method using African green monkey kidney-derived CV-1 cells. The CV-1 cells were seeded in a 96-well plate (Thermo Fisher Scientific K.K., 4938) at 2×10^4 cells/well by using a 10% FBS-containing DMEM (NACALAI TESQUE, INC., 0845874) medium. After culturing under conditions of 37° C. and 5% CO2 for 2 hours, the cells were transfected with the plasmids. The transfection was conducted by using Lipofectamine LTX (Invitrogen, 15338-100) according to the attached manual. The plasmid solution was prepared by adding a mixture solution of the luciferase expression plasmid and the PPAR-α receptor expression plasmid to OPTI-MEM I (Invitrogen, 11058-021). After the transfection, the test compound was added, and the cells were cultured at 37° C. in the presence of 5% CO2 for 18 to 20 hours. After the culturing, the luciferase activity was measured with Luminescensor JNR (ATTO) by using Bright-Glo (Promega, E2620).
The fold induction of PPAR-α by each test compound was calculated by the following method. A relative fold induction (%) of PPAR-α by the test compound was defined as 100 (A/B), where A represents the maximum value of the PPAR-α activities of the test compound at 3 μM, 10 μM, 30 μM, and 100 μM, and B represents the PPAR-α activity of the compound of WO/2011/058154 at 100 μM.

| SMILES | Emax |
| --- | --- |
| CSc1cc(F)c(F)cc1-c1ccc(OCc2cccc(C(=O)N(CCS(N)(=O)=O)CC(=O)O)c2)cc1 [Example 51, 2-[[3-[[4-(4,5-Difluoro-2-methylsulfanyl-phenyl)phenoxy]methyl]benzoyl]-(2-sulfamoylethyl)amino]acetic Acid] | 5.8% |
| CSc1cc(F)c(F)cc1-c1ccc(OCc2cccc(C(=O)N(CC(=O)O)Cc3cocn3)c2)cc1 [Example 52, 2-[[3-[[4-(4,5-Difluoro-2-methylsulfanyl-phenyl)phenoxy]methyl]benzoyl]-(oxazol-4-ylmethyl)amino]acetic Acid] | 8.1% |
| CSc1cc(F)c(F)cc1-c1ccc(OCc2cccc(C(=O)N(CC(=O)O)Cc3ccncn3)c2)cc1 [Example 53, 2-[[3-[[4-(4,5-Difluoro-2-methylsulfanyl-phenyl)phenoxy]methyl]benzoyl]-(pyrimidin-4-ylmethyl)amino]acetic Acid] | 8.2% |
| CSc1cc(F)c(F)cc1-c1ccc(OCc2cccc(C(=O)N(CC(=O)O)Cc3ccn[nH]3)c2)cc1 [Example 54, 2-[[3-[[4-(4,5-Difluoro-2-methylsulfanyl-phenyl)phenoxy]methyl]benzoyl]-(1H-pyrazol-5-ylmethyl)amino]acetic Acid] | 8.7% |
| CSc1cc(F)c(F)cc1-c1ccc(OCc2cccc(C(=O)N(CC(=O)O)Cc3ccnn3C)c2)cc1 [Example 55, 2-[[3-[[4-(4,5-Difluoro-2-methylsulfanyl-phenyl)phenoxy]methyl]benzoyl]-[(2-methylpyrazol-3-yl)methyl]amino]acetic Acid] | 11% |
| CNS(=O)(=O)CCN(CC(=O)O)C(=O)c1cccc(COc2ccc(-c3cc(F)c(F)cc3SC)cc2)c1 [Example 56, 2-[[3-[[4-(4,5-Difluoro-2-methylsulfanyl-phenyl)phenoxy]methyl]benzoyl]-[2-(methylsulfamoyl)ethyl]amino]acetic Acid] | 8% |
| CSc1cc(F)c(F)cc1-c1ccc(OCc2cccc(C(=O)N(CCS(=O)(=O)N(C)C)CC(=O)O)c2)cc1 [Example 59, 2-[[3-[[4-(4,5-Difluoro-2-methylsulfanyl-phenyl)phenoxy]methyl]benzoyl]-[2-(dimethylsulfamoyl)ethyl]amino]acetic Acid] | 10% |
| CSc1cc(F)c(F)cc1-c1ccc(OCc2cccc(C(=O)N(CCc3noc(C)n3)CC(=O)O)c2)cc1 [Example 60, 2-[[3-[[4-(4,5-Difluoro-2-methylsulfanyl-phenyl)phenoxy]methyl]benzoyl]-[2-(5-methyl-1,2,4-oxadiazol-3-yl)ethyl]amino]acetic Acid] | 14% |
| CSc1cc(F)c(F)cc1-c1ccc(OCc2cccc(C(=O)N3C[C@H](C(N)=O)C[C@H]3C(=O)O)c2)cc1 [Example 61, (2S,4R)-4-Carbamoyl-1-[3-[[4-(4,5-difluoro-2-methylsulfanyl-phenyl)phenoxy]methyl]benzoyl]pyrrolidine-2-carboxylic Acid] | 17% |
| CSc1cc(F)c(F)cc1-c1ccc(OCc2cccc(C(=O)N3[C@@H](CO)CC[C@H]3C(=O)O)c2)cc1 [Example 64, (2S,5R)-1-[3-[[4-(4,5-Difluoro-2-methylsulfanyl-phenyl)phenoxy]methyl]benzoyl]-5-(hydroxymethyl)pyrrolidine-2-carboxylic Acid] | 20% |
| CSc1cc(F)c(F)cc1-c1ccc(OCc2cccc(C(=O)N(CC(=O)O)Cc3ccon3)c2)cc1 [Example 66, 2-[[3-[[4-(4,5-Difluoro-2-methylsulfanyl-phenyl)phenoxy]methyl]benzoyl]-(isoxazol-3-ylmethyl)amino]acetic Acid] | 22% |
| CSc1cc(F)c(F)cc1-c1ccc(OCc2cccc(C(=O)N(CC(=O)O)Cc3coc(C)n3)c2)cc1 [Example 67, 2-[[3-[[4-(4,5-Difluoro-2-methylsulfanyl-phenyl)phenoxy]methyl]benzoyl]-[(2-methyloxazol-4-yl)methyl]amino]acetic Acid] | 19% |
| CSc1cc(F)c(F)cc1-c1ccc(OCc2cccc(C(=O)N(CC(=O)O)Cc3nc(C)no3)c2)cc1 [Example 68, 2-[[3-[[4-(4,5-Difluoro-2-methylsulfanyl-phenyl)phenoxy]methyl]benzoyl]-[(3-methyl-1,2,4-oxadiazol-5-yl)methyl]amino]acetic Acid] | 35% |
| CSc1cc(F)c(F)cc1-c1ccc(OCc2cccc(C(=O)N(CC(=O)O)Cc3noc(C)n3)c2)cc1 [Example 69, 2-[[3-[[4-(4,5-Difluoro-2-methylsulfanyl-phenyl)phenoxy]methyl]benzoyl]-[(5-methyl-1,2,4-oxadiazol-3-yl)methyl]amino]acetic Acid] | 23% |
| CSc1cc(F)c(F)cc1-c1ccc(OCc2cccc(C(=O)N(CCn3cncn3)CC(=O)O)c2)cc1 [Example 70, 2-[[3-[[4-(4,5-Difluoro-2-methylsulfanyl-phenyl)phenoxy]methyl]benzoyl]-[2-(1,2,4-triazol-1-yl)ethyl]amino]acetic Acid] | 14% |
| CSc1cc(F)c(F)cc1-c1ccc(OCc2cccc(C(=O)N(CC(=O)O)Cc3cscn3)c2)cc1 [Example 71, 2-[[3-[[4-(4,5-Difluoro-2-methylsulfanyl-phenyl)phenoxy]methyl]benzoyl]-(thiazol-4-ylmethyl)amino]acetic Acid] | 20% |
| CSc1cc(F)c(F)cc1-c1ccc(OCc2cccc(C(=O)N3C(CC#N)CC[C@H]3C(=O)O)c2)cc1 (stereo partly drawn) [Example 72, (2S)-5-(Cyanomethyl)-1-[3-[[4-(4,5-difluoro-2-methylsulfanyl-phenyl)phenoxy]methyl]benzoyl]pyrrolidine-2-carboxylic Acid] | 12% |
| CSc1cc(F)c(F)cc1-c1ccc(OCc2cccc(C(=O)N(CC(=O)O)Cc3nnc(C)o3)c2)cc1 [Example 73, 2-[[3-[[4-(4,5-Difluoro-2-methylsulfanyl-phenyl)phenoxy]methyl]benzoyl]-[(5-methyl-1,3,4-oxadiazol-2-yl)methyl]amino]acetic Acid] | 16% |
| CSc1cc(F)c(F)cc1-c1ccc(OCc2cccc(C(=O)N(CC(=O)O)Cc3cn(C)cn3)c2)cc1 [Example 74, 2-[[3-[[4-(4,5-Difluoro-2-methylsulfanyl-phenyl)phenoxy]methyl]benzoyl]-[(1-methylimidazol-4-yl)methyl]amino]acetic Acid] | 16% |
| N#CCCN(CC(=O)O)C(=O)c1cccc(COc2ccc(-c3cc(F)c(F)c4ccoc34)cc2)c1 [Example 75, 2-[2-Cyanoethyl-[3-[[4-(4,5-difluorobenzofuran-7-yl)phenoxy]methyl]benzoyl]amino]acetic Acid] | 38% |
| CS(=O)(=O)CCCN(CC(=O)O)C(=O)c1cccc(COc2ccc(-c3cc(F)c(F)c4ccoc34)cc2)c1 [Example 77, 2-[[3-[[4-(4,5-Difluorobenzofuran-7-yl)phenoxy]methyl]benzoyl]-(3-methylsulfonylpropyl)amino]acetic Acid] | 40% |
| CO[C@H]1CCN(C(=O)c2cccc(COc3ccc(-c4cc(F)c(F)c5ccoc45)cc3)c2)[C@@H]1C(=O)O [Example 78, (2S,3S)-1-[3-[[4-(4,5-Difluorobenzofuran-7-yl)phenoxy]methyl]benzoyl]-3-methoxy-pyrrolidine-2-carboxylic Acid] | 65% |
| NC(=O)CCN(CC(=O)O)C(=O)c1cccc(COc2ccc(-c3cc(F)c(F)c4ccoc34)cc2)c1 [Example 79, 2-[(3-Amino-3-oxo-propyl)-[3-[[4-(4,5-difluorobenzofuran-7-yl)phenoxy]methyl]benzoyl]amino]acetic Acid] | 7.1% |
| COC[C@H](C)N(CC(=O)O)C(=O)c1cccc(COc2ccc(-c3cc(F)c(F)c4ccoc34)cc2)c1 [Example 80, 2-[[3-[[4-(4,5-Difluorobenzofuran-7-yl)phenoxy]methyl]benzoyl]-[(1S)-2-methoxy-1-methyl-ethyl]amino]acetic Acid] | 91% |
| CC(=O)N1CCC(CN(CC(=O)O)C(=O)c2cccc(COc3ccc(-c4cc(F)c(F)c5ccoc45)cc3)c2)CC1 [Example 81, 2-[(1-Acetyl-4-piperidyl)methyl-[3-[[4-(4,5-difluorobenzofuran-7-yl)phenoxy]methyl]benzoyl]amino]acetic Acid] | 6.4% |
